Legend:
C. auris CBS 10913 = experiment: Sorbitol protection assay; assay type: cell-based, Candida auris; conditions: C. auris CBS 10913; sorbitol 0.8 mol l^−1 in RPMI, till 7 days
Description: Caspofungin served as a positive control for the assay (Leite et al. [2014]).

C. auris CBS12373 = experiment: Broth microdilution MIC; assay type: cell-based, Candida auris; conditions: CBS 12 373; RPMI 1640 with MOPS, 5 × 10^3 CFU ml^−1; ≥90% reduction (≥50% for fluconazole)
S. aureus 105 = conditions: S. aureus 105; CAMHB, 37°C, 16–20 h
Protocol: (§1) Briefly, bacteria were suspended in cation-adjusted Mueller–Hinton broth (CAMHB; Oxoid, UK) for antibiotics, or MHB (Oxoid, UK) for peptidomimetics to obtain 5 × 10^5 colony forming unit (CFU) ml^−1. […] Positive controls contained only microbes, and blanks contained only media. Microbial suspensions (100 µl) were added to wells, plates wrapped, and incubated at 37°C, 120 rpm for 16–20 h. After incubation, suspensions were removed, log10 diluted, and plated on Trypticase Soya Agar with phosphatidylcholine and Tween 80 to determine minimum bactericidal or fungicidal concentration (MBC or MFC). […] Geometric mean MIC of the peptoids were calculated to evaluate the broad overview of antimicrobial activity across the pathogens.

S. aureus 04 = conditions: S. aureus 04; CAMHB, 37°C, 16–20 h
Protocol: as §1

S. aureus 117 = conditions: S. aureus 117; CAMHB, 37°C, 16–20 h
Protocol: as §1

S. aureus 38 = conditions: S. aureus 38; CAMHB, 37°C, 16–20 h
Protocol: as §1

E. coli 0011 = conditions: E. coli 0011; CAMHB, 37°C, 16–20 h
Protocol: as §1

[1] = tested on: Enteroc. faecalis NCTC 13 379; conditions: Enteroc. faecalis NCTC 13 379; CAMHB, 37°C, 16–20 h
Protocol: as §1

E. coli 0015 = conditions: E. coli 0015; CAMHB, 37°C, 16–20 h
Protocol: as §1

E. coli 005 = conditions: E. coli 005; CAMHB, 37°C, 16–20 h
Protocol: as §1

K. pneumoniae JIE2709 = conditions: K. pneumoniae JIE2709; CAMHB, 37°C, 16–20 h
Protocol: as §1

E. coli 0010 = conditions: E. coli 0010; CAMHB, 37°C, 16–20 h
Protocol: as §1

En. cloacae 005 = conditions: En. cloacae 005; CAMHB, 37°C, 16–20 h
Protocol: as §1

K. pneumoniae JIE2713 = conditions: K. pneumoniae JIE2713; CAMHB, 37°C, 16–20 h
Protocol: as §1

K. pneumoniae JIE4212 = conditions: K. pneumoniae JIE4212; CAMHB, 37°C, 16–20 h
Protocol: as §1

En. cloacae 001 = conditions: En. cloacae 001; CAMHB, 37°C, 16–20 h
Protocol: as §1

En. cloacae 003 = conditions: En. cloacae 003; CAMHB, 37°C, 16–20 h
Protocol: as §1

C. auris CBS10913 = experiment: Membrane integrity by flow cytometry (SYTO 9 / PI); assay type: cell-based, Candida auris; conditions: TM8 at its MIC or 1% Triton X-100, 90 min; PBS control 0.2%
Protocol: Afterwards, the cells were stained with SYTO 9 (7.5 µmol l^−1) and PI (30 µmol l^−1) for an additional 15 min in the dark at room temperature. Following washing, samples were then analysed for membrane integrity on a BD FACSymphony^TM A3, with a minimum of 10 000 events recorded per sample.

| MIC of antibiotics (S. aureus 105) [µg/mL] | MIC of antibiotics (S. aureus 04) [µg/mL] | MIC of antibiotics (S. aureus 117) [µg/mL] | MIC of antibiotics (S. aureus 38) [µg/mL] | MIC of antibiotics [1] [µg/mL] | Compound | other results |
| --- | --- | --- | --- | --- | --- | --- |
| – | – | – | – | – | CC[C@H](C)C[C@H](C)CCCCCCCCC(=O)N[C@H]1C[C@@H](O)[C@@H](NCCN)NC(=O)[C@@H]2[C@@H](O)CCN2C(=O)[C@H]([C@H](O)CCN)NC(=O)[C@H]([C@H](O)[C@@H](O)c2ccc(O)cc2)NC(=O)[C@@H]2C[C@@H](O)CN2C(=O)[C@H]([C@@H](C)O)NC1=O [Caspofungin, reference compound] | MIC in the presence of sorbitol (C. auris CBS 10913): 1 µg/mL; MIC against C. auris (C. auris CBS12373): 0.25 (228.7) µg ml^−1 |
| 16 | 0.5 | 0.5 | 0.5 | – | CO/N=C(\C(=O)N[C@@H]1C(=O)N2C(C(=O)O)=C(COC(C)=O)CS[C@H]12)c1csc(N)n1 [Cefox, cefotaxime, reference compound] | – |
| 32 | 2 | 4 | 4 | 64 | O=C(N[C@H](CO)[C@H](O)c1ccc([N+](=O)[O-])cc1)C(Cl)Cl [Chl, chloramphenicol, reference compound] | MIC of antibiotics (E. coli 0011): 1 µg/mL; MIC of antibiotics (E. coli 0015): 2 µg/mL; MIC of antibiotics (E. coli 005): 8 µg/mL; MIC of antibiotics (K. pneumoniae JIE2709): >32 µg/mL; MIC of antibiotics (E. coli 0010): 8 µg/mL; MIC of antibiotics (En. cloacae 005): 32 µg/mL; MIC of antibiotics (K. pneumoniae JIE2713): 32 µg/mL; MIC of antibiotics (K. pneumoniae JIE4212): 32 µg/mL; MIC of antibiotics (En. cloacae 001): 32 µg/mL; MIC of antibiotics (En. cloacae 003): 32 µg/mL |
| 32 | 0.5 | 1 | 1 | 4 | CC[C@H]1OC(=O)[C@H](C)[C@@H](O[C@H]2C[C@@](C)(OC)[C@@H](O)[C@H](C)O2)[C@H](C)[C@@H](O[C@@H]2O[C@H](C)C[C@H](N(C)C)[C@H]2O)[C@](C)(O)C[C@@H](C)C(=O)[C@H](C)[C@@H](O)[C@]1(C)O [Ery, erythromycin, reference compound] | – |
| 16 | 0.25 | 0.5 | 0.5 | 0.5 | CN(C)c1ccc(O)c2c1C[C@H]1C[C@H]3[C@H](N(C)C)C(O)=C(C(N)=O)C(=O)[C@@]3(O)C(O)=C1C2=O [Min, minocycline, reference compound] | – |
| – | – | – | – | – | Triton X-100 [reference compound] | Dead cells (C. auris CBS10913): 27.3% |
| 32 | 16 | 16 | 16 | 4 | penicillin [reference compound] | – |

| Compound | MIC of antibiotics (S. aureus 105) [µg/mL] | MIC of antibiotics (S. aureus 04) [µg/mL] | MIC of antibiotics (S. aureus 117) [µg/mL] | MIC of antibiotics (S. aureus 38) [µg/mL] | MIC of antibiotics [1] [µg/mL] | other results |
| --- | --- | --- | --- | --- | --- | --- |
| CN[C@H](CC(C)C)C(=O)N[C@H]1C(=O)N[C@@H](CC(N)=O)C(=O)N[C@H]2C(=O)N[C@H]3C(=O)N[C@H](C(=O)N[C@H](C(=O)O)c4cc(O)cc(O)c4-c4cc3ccc4O)[C@H](O)c3ccc(c(Cl)c3)Oc3cc2cc(c3O[C@@H]2O[C@H](CO)[C@@H](O)[C@H](O)[C@H]2O[C@H]2C[C@](C)(N)[C@H](O)[C@H](C)O2)Oc2ccc(cc2Cl)[C@H]1O [Van, vancomycin, reference compound] | 1 | 1 | 4 | 1 | 32 | – |

Source: PMC11879280, “Antimicrobial activity of peptoids against Metallo-β-lactamase-producing Klebsiella pneumoniae, Acinetobacter baumannii, Pseudomonas aeruginosa, and other WHO priority pathogens, including Candida auris” (Journal of Applied Microbiology, 2025)
